For test [1], the target named is Biotinylated KRAS G12C protein (Homo sapiens (Human), UniProt P01116, C118S/C51S/C80L/G12C). Nature of the test: SOS-catalyzed nucleotide exchange assay (TR-FRET). In kind it is biochemical. The settings on record: in vitro apparent potency; preincubation time of 60 minutes prior to addition of SOS. On the procedure: The SOS-catalyzed nucleotide exchange assay utilizes a preformed complex of recombinant biotinylated KRAS protein containing G12C/C51S/C80L/C118S mutations (183 amino acids; biotin on K10; leader sequence which is an AviTag; referred to as SEQ ID NO: 1 or “Biotinylated KRAS G12C protein” hereafter), Bodipy-GDP, and Terbium-streptavidin. Compounds are added to this complex and then after incubation for 60 minutes, the mixture is treated with recombinant SOS protein and unlabeled GTP. Small molecule inhibitors stabilize the Bodipy-GDP complex whereas the untreated protein rapidly exchanges Bodipy-GDP for unlabeled GTP resulting in reduced TR-FRET signal.
Biotinylated KRAS G12C protein (SEQ ID NO: 1) is diluted to 2 μM in an EDTA buffer (20 mM HEPES, 150 mM sodium chloride, 10 mM EDTA, and 0.01% Tween) and incubated at room temperature for one hour. This mixture is then further diluted to 90 nM in an assay buffer (20 mM HEPES, 150 mM sodium chloride, 10 mM magnesium chloride, and 0.005% Tween) containing 15 nM of Terbium-Streptavidin (Invitrogen, catalog #PV3577) and 900 nM of Bodipy-GDP and incubated at room temperature for six hours. This solution is referred to as Biotinylated KRAS G12C mixture.
Each test compound (10 mM stock in DMSO) is diluted in DMSO to make a 10-point, 3-fold dilution series in a 384-well low dead volume microplate (Labcyte, catalog #LP-0200). Once titrations are made, 10 nL of the diluted compounds is acoustically dispensed into a 384-well plate (Corning, catalog #3820) using an Echo 550 (Labcyte).
Each well of the plate receives 3 μL Biotinylated KRAS G12C mixture that had been incubating for six hours and 3 μL of assay buffer using a BioRAPTR (Beckman Coulter) and is incubated at room temperature for 60 minutes. Each well then receives 3 μL of 240 nM recombinant human SOS protein and 9 mM GTP (Sigma, G8877) in assay buffer and is incubated at room temperature for 60 minutes.
The time-resolved fluorescence resonance energy transfer signal of the plate is measured on an Envision (PerkinElmer) plate reader: Excitation filter=340 nm; emission1=495 nm; emission2=520 nm; dichroic mirror=D400/D505; delay time=100 μs. The signal of each well is determined as the ratio of the emission at 520 nm to that at 495 nm. Percent effect of each well is determined after normalization to control wells containing DMSO (no effect) or a saturating concentration of inhibitor (max effect). The apparent effect as a function of compound concentration is fit to a four parameter logistic equation.
A general note: TR-FRET usually uses a lanthanide donor and a delayed reading to cut background.

In another test the test system is phospho-ERK. Nature of the test: Cellular phospho-ERK assay. In kind it is cell-based. To be noted: NCI-H358 cells, 2 hour incubation, ratio of p-Erk vs total Erk, read-out: IC50 (nM) pERK (Cell). The protocol: NCI-H358 cells (ATCC® CRL-5807™) were cultured in T150 flask in growth medium (RPMI medium 1640-GlutaMAX™-I (ThermoFisher Scientific 61870) containing 10% fetal bovine serum (ThermoFisher Scientific 10091148)). The cells were harvested in growth medium after TrypLE (ThermoFisher scientific 12604021) digestion and were seeded in a 384-well collagen coated cell culture plate (Corning 356702) at a density of 15,000 cells/well, and incubated at 37° C., 5% CO2 overnight. The compound dose-response titrations were prepared and appropriate amounts of compounds were dispensed in a 384-well intermediate plate using an Echo 550 liquid handler. RPMI medium 1640-GlutaMAX™-I were added to the intermediate plate and transferred to 384-well cell culture plate, which was incubated at 37° C., 5% CO2 for 2 hours. After removal of medium from the plate, cells were lysed in lysis buffer from Alpha SureFire® Ultra™ Multiplex p-Erk and total Erk assay kit (PerkinElmer MPSU-PTERK) containing Halt™ Protease and Phosphotase inhibitor cocktail (ThermoFisher Scientific 78446) at room temperature with constant shaking at 300 rpm for 30 minutes. The cell lysates were then transferred to OptiPlate-384 plate (PerkinElmer 6005620) and the phosphorylation of Erk and total Erk levels were detected by Alpha SureFire Ultra Multiplex p-Erk kit (PerkinElmer MPSU-PTERK) following the manufacturer's protocol. Assay plates were read on an EnVision Multimode Plate Reader (PerkinElmer), and the ratio of p-Erk vs total Erk in each well was used as the final readout. Dose response curves were analyzed using a 4-parameter logistic model to calculate IC50 values using spotfire software.

Read-outs that look alike come from different tables or passages of the source.

In general, IC50 refers to the concentration at which inhibition is half-maximal. Turning to `C=CC(=O)N1[C@H](C)CN(c2nc(=O)n3c4nc(c(F)cc24)-c2c(F)cccc2OCCCCc2ccnc(C(C)C)c2-3)C[C@@H]1C` [Example 7, 2-[(3R,5S)-3,5-dimethyl-4-(prop-2-enoyl)piperazin-1-yl]-18,21-difluoro-6-(propan-2-yl)-10,11,12,13-tetrahydro-4H-1,19-ethenopyrido[4,3-f]pyrimido[1,6-h][1,8,10]benzoxadiazacyclotridecin-4-one], the IC50 in test [1] came out at 6.9 nM; in the test with phospho-ERK, 34 nM.
For the compound `C=CC(=O)N1C[C@H](C)N(c2nc(=O)n3c4nc(c(F)cc24)-c2c(F)cccc2OC(C)CCc2ccnc(C(C)C)c2-3)C[C@H]1C` (single isomer, unassigned) [Example 81], the IC50 stood at 2.9 nM in test [1] and 21 nM with phospho-ERK (Homo sapiens, NCI-H358, 2 h).
Take `C=CC(=O)N1CCN(c2nc(=O)n3c4nc(c(F)cc24)-c2c(F)cccc2OCCOc2ccnc(C(C)C)c2-3)[C@@H](C)C1` (single isomer, unassigned) [Example 12a]: the IC50 is 3.9 nM in test [1] and 6.9 nM in the test with phospho-ERK (Homo sapiens, NCI-H358, 2 h).
`C=CC(=O)N1C[C@H](C)N(c2nc(=O)n3c4nc(c(Cl)cc24)-c2cc(F)cc(F)c2OCCCc2ccnc(C(C)C)c2-3)C[C@H]1C` [Example 82, 20-chloro-2-[(2S,5R)-2,5-dimethyl-4-(prop-2-enoyl)piperazin-1-yl]-14,16-difluoro-6-(propan-2-yl)-11,12-dihydro-4H,10H-1,18-ethenopyrido[4,3-e]pyrimido[1,6-g][1,7,9]benzoxadiazacyclododecin-4-one]: the half-maximal inhibitory concentration (IC50) in test [1] amounted to 5.9 nM; in the test on phospho-ERK (Homo sapiens, NCI-H358, 2 h), 36 nM.
Regarding `C=CC(=O)N1CCN(c2nc(=O)n3c4nc(c(F)cc24)-c2c(F)cccc2C(=O)NCCCc2ccnc(C(C)C)c2-3)[C@@H](C)C1` (single isomer, unassigned) [Example 19a], the IC50 in test [1] was 6.8 nM; with phospho-ERK, 117 nM.
As for `C=CC(=O)N1C[C@H](C)N(c2nc(=O)n3c4nc(c(F)cc24)-c2cccc4cnn(c24)CCCCc2ccnc(C(C)C)c2-3)C[C@H]1C` [Example 68, 2-[(2S,5R)-2,5-dimethyl-4-(prop-2-enoyl)piperazin-1-yl]-22-fluoro-6-(propan-2-yl)-10,11,12,13-tetrahydro-4H-1,20-(ethanediylidene)pyrido [4′,3′:12,13]pyrimido [1′,6′:1,2][1,3,7]triaza-cyclotridecino[5,6,7-hi] indazol-4-one], the IC50 in test [1] came out at 4.5 nM; in the test with phospho-ERK (Homo sapiens, NCI-H358, 2 h), 6.3 nM.
On to `C=CC(=O)N1CCN(c2nc(=O)n3c4nc(c(F)cc24)-c2c(F)cccc2OCCCc2ccnc(C(C)C)c2-3)[C@@H](C)C1` (single isomer, unassigned) [Example 10b], for which the concentration for half-maximal inhibition (IC50) in test [1] is 2590 nM; in the test with phospho-ERK it was 4380 nM.
Regarding `C=CC(=O)N1C[C@H](C)N(c2nc(=O)n3c4nc(c(F)cc24)-c2c(F)cccc2OCCc2ccnc(C(C)C)c2-3)C[C@H]1C` [Example 96, 2-[(2S,5R)-2,5-dimethyl-4-(prop-2-enoyl)piperazin-1-yl]-16,19-difluoro-6-(propan-2-yl)-10,11-dihydro-4H-1,17-ethenopyrido[4,3-d]pyrimido[1,6-f][1,6,8]benzoxadiazacycloundecin-4-one], the IC50 in test [1] came to 3.8 nM; in the test with phospho-ERK (Homo sapiens, NCI-H358, 2 h), 32 nM.
In the case of “17,20-difluoro-2-[(2S)-2-methyl-4-(prop-2-enoyl)piperazin-1-yl]-6-(propan-2-yl)-10,11,12,13-tetrahydro-4H-1,18-ethenopyrido[4,3-e]pyrimido[1,6-g][1,7,9]benzotriazacyclododecin-4-one [Example 112]”, the results for the IC50 (in test [1]; with phospho-ERK) were 23 nM and 26 nM, respectively.
Turning to `C=CC(=O)N1CC2CCC1CN2c1nc(=O)n2c3nc(c(F)cc13)-c1c(F)cccc1OCCCc1ccnc(C(C)C)c1-2` (stereo not drawn) [Example 105, 17,20-difluoro-6-(propan-2-yl)-2-[5-(prop-2-enoyl)-2,5-diazabicyclo[2.2.2]octan-2-yl]-11,12-dihydro-4H,10H-1,18-ethenopyrido[4,3-e]pyrimido[1,6-g][1,7,9]benzoxadiazacyclododecin-4-one], the IC50 in test [1] is 1910 nM; in the test on phospho-ERK (Homo sapiens, NCI-H358, 2 h), 3600 nM.
Take `C=CC(=O)N1CCN(c2nc(=O)n3c4nc(c(F)cc24)-c2c(F)cccc2OCCCCc2cnc(C(C)C)c-3c2)[C@H](C)C1` [Example 16b, 19,22-difluoro-2-[(2S)-2-methyl-4-(prop-2-enoyl)piperazin-1-yl]-7-(propan-2-yl)-11,12,13,14-tetrahydro-4H-1,20-(ethanediylidene)-6,10-(metheno)pyrimido[1,6-k][1,8,11,13]benzoxatriazacyclohexadecin-4-one]: the figures for the IC50 (in test [1]; in the test on phospho-ERK) were 10 nM and 109 nM, respectively.
In the case of `C=CC(=O)N1C[C@H](C)N(c2nc(=O)n3c4nc(c(F)cc24)-c2cccc(C(F)(F)F)c2OCCOc2ccnc(C(C)C)c2-3)C[C@H]1C` [Example 116, 2-[(2S,5R)-2,5-dimethyl-4-(prop-2-enoyl)piperazin-1-yl]-20-fluoro-6-(propan-2-yl)-14-(trifluoromethyl)-11,12-dihydro-4H-1,18-ethenopyrido[4,3-e]pyrimido[1,6-g][1,4,7,9]benzodioxadiazacyclododecin-4-one], the IC50 came out at 1100 nM in test [1] and 2730 nM in the test on phospho-ERK.
Consider `C=CC(=O)N1C[C@H](C)N(c2nc(=O)n3c4nc(c(F)cc24)-c2c(Cl)cccc2OCCCc2ccnc(C(C)C)c2-3)C[C@H]1C` [Example 76, 17-chloro-2-[(2S,5R)-2,5-dimethyl-4-(prop-2-enoyl)piperazin-1-yl]-20-fluoro-6-(propan-2-yl)-11,12-dihydro-4H,10H-1,18-ethenopyrido[4,3-e]pyrimido[1,6-g][1,7,9]benzoxadiazacyclododecin-4-one], for which the IC50 in test [1] is 2.3 nM; with phospho-ERK (Homo sapiens, NCI-H358, 2 h), 3.6 nM.
In the case of `C=CC(=O)N1C[C@H](C)N(c2nc(=O)n3c4nc(c(F)cc24)-c2cc(C(F)(F)F)ccc2OCCOc2ccnc(C(C)C)c2-3)C[C@H]1C` [Example 86, 2-[(2S,5R)-2,5-dimethyl-4-(prop-2-enoyl)piperazin-1-yl]-20-fluoro-6-(propan-2-yl)-16-(trifluoromethyl)-11,12-dihydro-4H-1,18-(ethanediylidene)pyrido[4,3-e]pyrimido[1,6-g][1,4,7,9] benzodioxadiazacyclododecin-4-one], the 50% inhibitory concentration (IC50) in test [1] stood at 64 nM; with phospho-ERK (Homo sapiens, NCI-H358, 2 h), 389 nM.
On the same counts, the results for `[2H]C1([2H])Oc2ccc(F)c(F)c2-c2nc3c(cc2Cl)c(N2CC(C)N(C(=O)C=C)CC2C)nc(=O)n3-c2c(ccnc2C(C)C)OC1([2H])[2H]` [Example 57, (5aSa,17aRa)-20-chloro-2-[(2S,5R)-2,5-dimethyl-4-(prop-2-enoyl)piperazin-1-yl]-16,17-difluoro-6-(propan-2-yl)-11,12-di[(^2H)hydro](11,12-^2H2)-4H-1,18-(ethanediylidene)pyrido [4,3-e]pyrimido[1,6-g] [1,4,7,9]benzodioxadiaza-cyclododecin-4-one] are 0.51 nM and 6.1 nM.

The values above are taken from patent publication US20240043448A1, “Small Molecule Inhibitors of KRAS G12C Mutant” (Merck Sharp & Dohme LLC, priority 2019, published 2024).
